According to publication PMC5849061 (European journal of medicinal chemistry, 2018):
In brackets after ≈: the same amount, converted by molar mass. Blank lines part the entries; values can stand above or below the compound they belong to.

Experiments:
[1] = tested on: VRS11a (VRSA); assay: Broth microdilution MIC/MBC against VRS11a; format: cell-based; conditions: Staphylococcus aureus
[2] = tested on: murine macrophage (J774) cells; assay: Cytotoxicity against J774 macrophage cells; format: cell-based; conditions: 24-hour incubation, MTS, tested 8, 16, 32 μg/mL
[3] = tested on: MRSA USA400 inside infected macrophage (J774) cells; assay: Clearance of intracellular MRSA in infected J774 macrophages; format: cell-based, Staphylococcus aureus; conditions: 24 hours
[4] = tested on: MRSA USA300; assay: Time-kill assay against MRSA USA300; conditions: 4 × MIC
[5] = tested on: human colorectal cells (HRT-18); assay: Cytotoxicity against human colorectal; conditions: HRT-18 cells, two hours, MTS; tested 16, 32, 64 μg/mL
[6] = biological target: T1, human FPPS (HsFPPS) (Homo sapiens, UniProt P14324); assay: Human FPPS inhibition; format: biochemical; conditions: data not shown
T1 sequence (P14324 1-419): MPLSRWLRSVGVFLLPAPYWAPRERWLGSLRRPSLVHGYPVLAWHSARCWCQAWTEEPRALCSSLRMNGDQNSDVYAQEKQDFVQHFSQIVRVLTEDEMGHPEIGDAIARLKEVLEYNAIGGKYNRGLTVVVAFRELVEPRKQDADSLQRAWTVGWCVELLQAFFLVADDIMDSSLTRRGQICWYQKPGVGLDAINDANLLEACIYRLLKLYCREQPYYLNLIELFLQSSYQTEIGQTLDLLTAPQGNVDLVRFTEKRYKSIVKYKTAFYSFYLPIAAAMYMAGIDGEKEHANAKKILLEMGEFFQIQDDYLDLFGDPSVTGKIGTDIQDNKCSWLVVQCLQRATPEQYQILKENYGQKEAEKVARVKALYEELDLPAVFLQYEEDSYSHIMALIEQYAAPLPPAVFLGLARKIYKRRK

[7] = tested on: Caco-2 cells; assay: Caco-2 bidirectional permeability assay; format: in vitro ADME, human
[8] = Metabolic stability in pooled human liver microsomes; format: in vitro ADME; conditions: for Notes (metabolic stability classification): HLM
[9] = In vivo pharmacokinetics in rat, single IV bolus; design: species or system Sprague-Dawley rats; conditions: male, Sprague-Dawley, plasma, 2 μM solution, t1/2, rat, two-compartment model
[10] = tested on: MRSA USA400; assay: Time-kill assay against MRSA USA400; conditions: 4 × MIC; for kill kinetics (in words): MRSA USA400
[11] = tested on: PMF in E. coli inverted membrane vesicles (IMVs); assay: IMV protonophore uncoupler assay
[12] = human, pooled human liver microsomes, pH 7.4

MIC [1]: 0.5 µg/mL (≈ 1.47 µM)
Structure (SMILES): CCCC#Cc1ccc(-c2nc(C)c(/C(C)=N/NC(=N)N)s2)cc1 [Compound 10, 2-(1-(4-Methyl-2-(4-(pent-1-yn-1-yl)phenyl)thiazol-5-yl)ethylidene)hydrazine-1-carboximidamide]
non-toxic to macrophage cells up to a concentration of [2]: 16 µg/mL | reduction of the burden of intracellular MRSA ([3]; 16 μg/mL): complete eradication | kill kinetics (in words) [4]: rapid bactericidal activity | non-toxic up to (concentration) [5]: 32 µg/mL

Structure (SMILES): C/C(=N\NC(=N)N)c1sc(-c2ccc(C#CC3CC3)cc2)nc1C [Compound 9, 2-(1-(2-(4-(Cyclopropylethynyl)phenyl)-4-methylthiazol-5-yl)ethylidene) hydrazine-1-carboximidamide]
non-toxic to macrophage cells up to a concentration of [2]: 8 µg/mL | reduction of the burden of intracellular MRSA ([3]; 8 μg/mL (4 × MIC)): neither the alicyclic-containing derivatives 6, 7 or 9 (4 × MIC) nor vancomycin (4 × MIC) were able to produce a significant reduction | inhibition of HsFPPS [6]: no inhibition | Notes (permeability classification) [7]: Low permeability | Notes (metabolic stability classification) [8]: Stable to metabolism | half-life at 0.1 μM [8, 12]: 288 min | microsomal CLint at 0.1 μM [8, 12]: < 116 µL/min/mg | half-life [9]: ~270 min | time to complete eradication of MRSA USA400 [10]: 24 h | kill kinetics (in words) [10]: slow bactericidal activity | non-toxic up to (concentration) [5]: 32 µg/mL | EC50 for PMF collapse (corresponding mass concentration) ([11]; ATP-powered PMF generation): 8 µg/mL | EC50 for PMF collapse (corresponding mass concentration) ([11]; succinate/O2-powered PMF generation): 9.5 µg/mL

Structure (SMILES): C/C(=N\NC(=N)N)c1sc(-c2ccc(C#Cc3ccccc3)cc2)nc1C [Compound 5]
kill kinetics (in words) [10]: bacteriostatic | non-toxic up to (concentration) [5]: 32 µg/mL

Structure (SMILES): C/C(=N\NC(=N)N)c1sc(-c2ccc(C#CC3CCCC3)cc2)nc1C [Compound 7, 2-{1-[2-(4-(Cyclopentylethynyl)phenyl)-4-methylthiazol-5-yl]ethylidene} hydrazine-1-carboximidamide]
non-toxic to macrophage cells up to a concentration of [2]: 8 µg/mL | reduction of the burden of intracellular MRSA ([3]; 8 μg/mL (4 × MIC)): neither the alicyclic-containing derivatives 6, 7 or 9 (4 × MIC) nor vancomycin (4 × MIC) were able to produce a significant reduction | reduction in MRSA CFU/mL after 8 hours ([10]; 8 hours, re-growth thereafter): ~3 log10 | non-toxic up to (concentration) [5]: 32 µg/mL

Structure (SMILES): C/C(=N\NC(=N)N)c1sc(-c2ccc(C#CC(C)(C)C)cc2)nc1C [Compound 13, 2-(1-(2-(4-(3,3-Dimethylbut-1-yn-1-yl)-phenyl)-4-methylthiazol-5-yl)ethylidene) hydrazine-1-carboximidamide]
non-toxic up to (concentration) [5]: 32 µg/mL

Structure (SMILES): C/C(=N\NC(=N)N)c1sc(-c2ccc(C#CC3CCCCC3)cc2)nc1C [Compound 6, 2-(1-(2-(4-(Cyclohexylethynyl)phenyl)-4-methylthiazol-5-yl)ethylidene)hydrazine-1-carboximidamide]
reduction of the burden of intracellular MRSA ([3]; 16 μg/mL): neither the alicyclic-containing derivatives 6, 7 or 9 (4 × MIC) nor vancomycin (4 × MIC) were able to produce a significant reduction | non-toxic up to (concentration) [5]: 32 µg/mL

Structure (SMILES): CN[C@H](CC(C)C)C(=O)N[C@H]1C(=O)N[C@@H](CC(N)=O)C(=O)N[C@H]2C(=O)N[C@H]3C(=O)N[C@H](C(=O)N[C@H](C(=O)O)c4cc(O)cc(O)c4-c4cc3ccc4O)[C@H](O)c3ccc(c(Cl)c3)Oc3cc2cc(c3O[C@@H]2O[C@H](CO)[C@@H](O)[C@H](O)[C@H]2O[C@H]2C[C@](C)(N)[C@H](O)[C@H](C)O2)Oc2ccc(cc2Cl)[C@H]1O [Vancomycin, reference compound]
time to complete eradication of MRSA USA400 [10]: 24 h

Structure (SMILES): CCCCCCC#Cc1ccc(-c2nc(C)c(/C(C)=N/NC(=N)N)s2)cc1 [Compound 12]
non-toxic up to (concentration) [5]: 32 µg/mL

Notes (metabolic stability classification) [8]: Stable to metabolism
Structure (SMILES): C/C(=N\NC1=NCCN1)c1sc(-c2ccc(C#CC3CC3)cc2)nc1C [Compound 19, 2-(4-(Cyclopropylethynyl)phenyl)-5-(1-(2-(4,5-dihydro-1H-imidazol-2-yl)hydrazono)ethyl)-4-methylthiazole]

Structure (SMILES): CCCCCC#Cc1ccc(-c2nc(C)c(/C(C)=N/NC(=N)N)s2)cc1 [Compound 11, 2-(1-(2-(4-(Hep-1-yn-1-yl)phenyl)-4-methylthiazol-5-yl)ethylidene)hydraz-ine-1-carboximidamide]
non-toxic to macrophage cells up to a concentration of [2]: 16 µg/mL | reduction of the burden of intracellular MRSA ([3]; 16 μg/mL): complete eradication | kill kinetics (in words) [4]: rapid bactericidal activity | non-toxic up to (concentration) [5]: 32 µg/mL

Structure (SMILES): C/C(=N\NC1=NCCN1)c1sc(-c2ccc(C#CC(C)(C)C)cc2)nc1C [Compound 23, 5-(1-(2-(4,5-Dihydro-1H-imidazol-2-yl)hydrazono)ethyl)-2-(4-(3,3-dimethylbut-1-yn-1-yl)phenyl)-4-methylthiazole]
non-toxic up to (concentration) [5]: 32 µg/mL
